The text below walks through data of ChEMBL document CHEMBL1138365, “Application of 3D-QSAR for identification of descriptors defining bioactivity of antimicrobial peptides” (2007).

In general, MIC refers to the lowest concentration found to suppress growth.

In brackets after ≈: the same amount, converted by molar mass. Non-standard residues stand in square brackets, D forms with d. Residues, ends and D or L forms follow the SMILES beside them. ξ: configuration not given here. *: point of attachment. Pro(3ξ,4ξ-(CH2)4) = O=C(O)[C@H]1NCC2CCCCC21; Oic = O=C(O)[C@@H]1C[C@@H]2CCCC[C@@H]2N1; Tic = O=C(O)[C@@H]1Cc2ccccc2CN1; ξTic = O=C(O)C1Cc2ccccc2CN1; NH(CH2)3NH2 = NCCCN*; GABA = NCCCC(=O)O

One experiment has as its system Staphylococcus aureus. Description: Antibacterial activity against Staphylococcus aureus. It is filed as functional.
Experiment [1] concerns Mycolicibacterium fortuitum. Briefly: Antibacterial activity against Mycobacterium ranae. It is filed as functional.

With `CC(=O)NCCCC(=O)N[C@@H](Cc1ccccc1)C(=O)N1Cc2ccccc2C[C@H]1C(=O)N1CC2CCCCC2[C@H]1C(=O)NCCCC(=O)N[C@@H](CCCCN)C(=O)N1Cc2ccccc2C[C@H]1C(=O)N1CC2CCCCC2[C@H]1C(=O)NCCCC(=O)N[C@@H](Cc1ccccc1)C(=O)N1Cc2ccccc2C[C@H]1C(=O)N1CC2CCCCC2[C@H]1C(=O)NCCCC(=O)N[C@@H](CCCCN)C(=O)N1Cc2ccccc2C[C@H]1C(=O)N[C@@H](CCCCN)C(=O)N[C@@H](CCCCN)C(=O)N[C@@H](CCCCN)C(=O)N[C@@H](CCCCN)C(=O)N[C@@H](CCCCN)C(N)=O` (stereo partly drawn) (Ac-[GABA]F[Tic][Pro(3ξ,4ξ-(CH2)4)][GABA]K[Tic][Pro(3ξ,4ξ-(CH2)4)][GABA]F[Tic][Pro(3ξ,4ξ-(CH2)4)][GABA]K[Tic]KKKKK-NH2), the MIC in the experiment with Staphylococcus aureus was determined as 30 µM (≈ 80.4 µg/mL); in experiment [1], 3 µM (≈ 8.04 µg/mL).
In the case of `CC(=O)N[C@@H](Cc1ccccc1)C(=O)N1Cc2ccccc2C[C@H]1C(=O)N1CC2CCCCC2[C@H]1C(=O)N[C@@H](CCCCN)C(=O)N1Cc2ccccc2C[C@H]1C(=O)N1CC2CCCCC2[C@H]1C(=O)N[C@@H](Cc1ccccc1)C(=O)N1Cc2ccccc2C[C@H]1C(=O)N1CC2CCCCC2[C@H]1C(=O)N[C@@H](CCCCN)C(=O)N1Cc2ccccc2C[C@H]1C(=O)N[C@@H](CCCCN)C(=O)N[C@@H](CCCCN)C(=O)N[C@@H](CCCCN)C(=O)N[C@@H](CCCCN)C(N)=O` (stereo partly drawn) (Ac-F[Tic][Pro(3ξ,4ξ-(CH2)4)]K[Tic][Pro(3ξ,4ξ-(CH2)4)]F[Tic][Pro(3ξ,4ξ-(CH2)4)]K[Tic]KKKK-NH2), the MIC in the experiment on Staphylococcus aureus came out at 3 µM (≈ 6.64 µg/mL); in experiment [1], 30 µM (≈ 66.4 µg/mL).
Turning to `CC(=O)NCC(=O)N[C@@H](Cc1ccccc1)C(=O)N1Cc2ccccc2C[C@H]1C(=O)N1CC2CCCCC2[C@H]1C(=O)NCC(=O)N[C@@H](CCCCN)C(=O)N1Cc2ccccc2C[C@H]1C(=O)N1CC2CCCCC2[C@H]1C(=O)NCC(=O)N[C@@H](Cc1ccccc1)C(=O)N1Cc2ccccc2C[C@H]1C(=O)N1CC2CCCCC2[C@H]1C(=O)NCC(=O)N[C@@H](CCCCN)C(=O)N1Cc2ccccc2C[C@H]1C(=O)N[C@@H](CCCCN)C(=O)N[C@@H](CCCCN)C(=O)N[C@@H](CCCCN)C(=O)N[C@@H](CCCCN)C(=O)N[C@@H](CCCCN)C(N)=O` (stereo partly drawn) (Ac-GF[Tic][Pro(3ξ,4ξ-(CH2)4)]GK[Tic][Pro(3ξ,4ξ-(CH2)4)]GF[Tic][Pro(3ξ,4ξ-(CH2)4)]GK[Tic]KKKKK-NH2), the MIC (against Staphylococcus aureus; in experiment [1]) was 3 µM (≈ 7.71 µg/mL) each time.
Turning to `CC(=O)NCC(=O)N1Cc2ccccc2C[C@H]1C(=O)N1CC2CCCCC2[C@H]1C(=O)N[C@@H](CCCCN)C(=O)N1Cc2ccccc2C[C@H]1C(=O)N1CC2CCCCC2[C@H]1C(=O)NCC(=O)N1Cc2ccccc2CC1C(=O)N1CC2CCCCC2[C@H]1C(=O)N[C@@H](CCCCN)C(=O)N1Cc2ccccc2C[C@H]1C(=O)N[C@@H](CCCCN)C(=O)N[C@@H](CCCCN)C(=O)N[C@@H](CCCCN)C(=O)N[C@@H](CCCCN)C(N)=O` (stereo partly drawn) (Ac-G[Tic][Pro(3ξ,4ξ-(CH2)4)]K[Tic][Pro(3ξ,4ξ-(CH2)4)]G[ξTic][Pro(3ξ,4ξ-(CH2)4)]K[Tic]KKKK-NH2), the MIC against Staphylococcus aureus turned out to be 10 µM (≈ 20.3 µg/mL); in experiment [1] it was 3 µM (≈ 6.1 µg/mL).
For the compound `CC(=O)N[C@@H](Cc1ccccc1)C(=O)N1Cc2ccccc2C[C@H]1C(=O)N1CC2CCCCC2[C@H]1C(=O)N[C@@H](CCCCN)C(=O)N1Cc2ccccc2C[C@H]1C(=O)N1CC2CCCCC2[C@H]1C(=O)N[C@@H](Cc1ccccc1)C(=O)N1Cc2ccccc2C[C@H]1C(=O)N1CC2CCCCC2[C@H]1C(=O)N[C@@H](CCCCN)C(=O)N1Cc2ccccc2C[C@H]1C(=O)N[C@@H](CCCCN)C(=O)N[C@@H](CCCCN)C(=O)N[C@@H](CCCCN)C(=O)N[C@@H](CCCCN)C(=O)N[C@@H](CCCCN)C(=O)N[C@@H](CCCCN)C(N)=O` (stereo partly drawn) (Ac-F[Tic][Pro(3ξ,4ξ-(CH2)4)]K[Tic][Pro(3ξ,4ξ-(CH2)4)]F[Tic][Pro(3ξ,4ξ-(CH2)4)]K[Tic]KKKKKK-NH2), the MIC (against Staphylococcus aureus; in experiment [1]) was 3 µM (≈ 7.41 µg/mL) each time.
For the compound `NCCCC[C@H](NC(=O)[C@H](CCCCN)NC(=O)[C@H](CCCCN)NC(=O)[C@H](CCCCN)NC(=O)[C@@H]1Cc2ccccc2CN1C(=O)[C@H](CCCCN)NC(=O)CNC(=O)[C@@H]1C2CCCCC2CN1C(=O)[C@@H]1Cc2ccccc2CN1C(=O)[C@H](Cc1ccccc1)NC(=O)CNC(=O)[C@@H]1C2CCCCC2CN1C(=O)[C@@H]1Cc2ccccc2CN1C(=O)[C@H](CCCCN)NC(=O)CNC(=O)[C@@H]1C2CCCCC2CN1C(=O)[C@@H]1Cc2ccccc2CN1C(=O)[C@H](Cc1ccccc1)NC(=O)CN)C(N)=O` (stereo partly drawn) (H-GF[Tic][Pro(3ξ,4ξ-(CH2)4)]GK[Tic][Pro(3ξ,4ξ-(CH2)4)]GF[Tic][Pro(3ξ,4ξ-(CH2)4)]GK[Tic]KKKK-NH2), the MIC (in the experiment on Staphylococcus aureus; in experiment [1]) was 10 µM (≈ 24 µg/mL) throughout.
As to `CC(=O)NCC(=O)N[C@@H](Cc1ccccc1)C(=O)N1Cc2ccccc2C[C@H]1C(=O)N1[C@H](C(=O)NCC(=O)N[C@@H](CCCCN)C(=O)N2Cc3ccccc3C[C@H]2C(=O)N2[C@H](C(=O)NCC(=O)N[C@@H](Cc3ccccc3)C(=O)N3Cc4ccccc4C[C@H]3C(=O)N3[C@H](C(=O)NCC(=O)N[C@@H](CCCCN)C(=O)N4Cc5ccccc5C[C@H]4C(=O)N[C@@H](CCCCN)C(=O)N[C@@H](CCCCN)C(=O)N[C@@H](CCCCN)C(=O)N[C@@H](CCCCN)C(=O)NCCCN)C[C@@H]4CCCC[C@@H]43)C[C@@H]3CCCC[C@@H]32)C[C@@H]2CCCC[C@@H]21` (Ac-GF[Tic][Oic]GK[Tic][Oic]GF[Tic][Oic]GK[Tic]KKKK-{NH(CH2)3NH2}), the MIC (in the experiment with Staphylococcus aureus; in experiment [1]) was 10 µM (≈ 25 µg/mL) each time.
As for `CC(C)C[C@H](NC(=O)[C@@H](N)CCCCN)C(=O)N1Cc2ccccc2C[C@H]1C(=O)N1CC2CCCCC2[C@H]1C(=O)N[C@@H](CCCCN)C(=O)N1Cc2ccccc2C[C@H]1C(=O)N1CC2CCCCC2[C@H]1C(=O)N[C@@H](Cc1ccccc1)C(=O)N1Cc2ccccc2C[C@H]1C(=O)N1CC2CCCCC2[C@H]1C(=O)N[C@@H](CCCCN)C(=O)N1Cc2ccccc2C[C@H]1C(=O)N1CC2CCCCC2[C@H]1C(=O)N[C@@H](Cc1ccccc1)C(=O)N1Cc2ccccc2C[C@H]1C(=O)N1CC2CCCCC2[C@H]1C(=O)N[C@@H](CCCCN)C(=O)N1Cc2ccccc2C[C@H]1C(=O)N1CC2CCCCC2[C@H]1C(=O)N[C@@H](CCCCN)C(=O)N[C@@H](CCCNC(=N)N)C(N)=O` (stereo partly drawn) (H-KL[Tic][Pro(3ξ,4ξ-(CH2)4)]K[Tic][Pro(3ξ,4ξ-(CH2)4)]F[Tic][Pro(3ξ,4ξ-(CH2)4)]K[Tic][Pro(3ξ,4ξ-(CH2)4)]F[Tic][Pro(3ξ,4ξ-(CH2)4)]K[Tic][Pro(3ξ,4ξ-(CH2)4)]KR-NH2), the MIC in the experiment on Staphylococcus aureus stood at 10 µM (≈ 30.8 µg/mL); in experiment [1], 30 µM (≈ 92.5 µg/mL).
For `CC(=O)NCCCC(=O)N[C@@H](Cc1ccccc1)C(=O)N1Cc2ccccc2C[C@H]1C(=O)N1CC2CCCCC2[C@H]1C(=O)NCCCC(=O)N[C@@H](CCCCN)C(=O)N1Cc2ccccc2C[C@H]1C(=O)N1CC2CCCCC2[C@H]1C(=O)NCCCC(=O)N[C@@H](Cc1ccccc1)C(=O)N1Cc2ccccc2C[C@H]1C(=O)N1CC2CCCCC2[C@H]1C(=O)NCCCC(=O)N[C@@H](CCCCN)C(=O)N1Cc2ccccc2C[C@H]1C(=O)N[C@@H](CCCCN)C(=O)N[C@@H](CCCCN)C(=O)N[C@@H](CCCCN)C(=O)N[C@@H](CCCCN)C(N)=O` (stereo partly drawn) (Ac-[GABA]F[Tic][Pro(3ξ,4ξ-(CH2)4)][GABA]K[Tic][Pro(3ξ,4ξ-(CH2)4)][GABA]F[Tic][Pro(3ξ,4ξ-(CH2)4)][GABA]K[Tic]KKKK-NH2), the MIC is 100 µM (≈ 255 µg/mL) against Staphylococcus aureus and 10 µM (≈ 25.5 µg/mL) in experiment [1].
